Laboratory results reported in EPA's ToxRefDB 2.

Assays:
[1] = tested on: rat; settings: Prenatal developmental toxicity study, sprague dawley, Oral, Gavage/Intubation, dose end: 15 GD
[2] = tested on: rat; settings: Prenatal developmental toxicity study, sprague dawley, Oral, Gavage/Intubation, dose end: 19 GD
[3] = tested on: rat; settings: Multigenerational reproductive toxicity study, sprague dawley, Oral, Feed, dose end: 2 generation
[4] = tested on: rat; settings: Prenatal developmental toxicity study, long evans, Oral, Gavage/Intubation, dose end: 15 GD
[5] = tested on: rat; settings: Prenatal developmental toxicity study, sprague dawley, Oral, Gavage/Intubation, dose end: 15 GD; remark: listed apart in the source
[6] = tested on: rat; settings: Prenatal developmental toxicity study, sprague dawley, Oral, Gavage/Intubation, dose end: 15 GD; remark: listed apart in the source
[7] = group: developmental, developmental / developmental malformation / bone / ossification sites + developmental / developmental malformation / bone / unossified + …
[8] = group: maternal, systemic / in life observation / body weight / body weight gain + systemic / in life observation / clinical signs / labored respiration + …
[9] = group: developmental, developmental / developmental malformation / bone / unossified
[10] = group: maternal, reproductive / reproductive performance / postimplantation loss / postimplantation loss + reproductive / reproductive performance / …
[11] = group: offspring, systemic / in life observation / body weight / offspring (pup) weight gain
[12] = group: parental, systemic / in life observation / body weight / body weight + systemic / in life observation / body weight / body weight gain + systemic / in…
[13] = group: reproductive, reproductive / reproductive performance / fertility / fertility + reproductive / reproductive performance / mating / mating
[14] = group: developmental, developmental / developmental malformation / placenta / size + systemic / in life observation / body weight / fetal weight
[15] = group: maternal, systemic / in life observation / body weight / body weight gain
[16] = group: developmental, developmental / developmental malformation / bone / incomplete ossification
[17] = group: maternal, systemic / in life observation / body weight / body weight gain + systemic / in life observation / food consumption / food consumption + …
[18] = group: developmental, developmental / developmental malformation / bone / delayed ossification + systemic / in life observation / body weight / fetal weight
[19] = group: maternal, systemic / organ weight / liver / nos + reproductive / reproductive performance / resorptions / resorptions + systemic / in life observation…

**Q.** With `O=Cc1ccccc1C=O` [1,2-Benzenedicarboxaldehyde] as the molecule, how does the LEL [1, 7] read?
**A.** 40 mg/kg/day

**Q.** What about the LOAEL [1, 7] of the same molecule?
**A.** 40 mg/kg/day

**Q.** And the NEL [1, 7]?
**A.** 20 mg/kg/day

**Q.** And the NOAEL [1, 7]?
**A.** 20 mg/kg/day

**Q.** And the LEL [1, 8]?
**A.** 10 mg/kg/day

**Q.** And the LOAEL [1, 8]?
**A.** 10 mg/kg/day

**Q.** What about the NEL [1, 8] of the same molecule?
**A.** < 10 mg/kg/day

**Q.** What about the NOAEL [1, 8] of the same molecule?
**A.** < 10 mg/kg/day

**Q.** Which results are given for `CC#N` [Acetonitrile]?
**A.** LEL [2, 9]: 275 mg/kg/day; LOAEL [2, 9]: > 275 mg/kg/day; NEL [2, 9]: 190 mg/kg/day; NOAEL [2, 9]: ≥ 275 mg/kg/day; LEL [2, 10]: 275 mg/kg/day; LOAEL [2, 10]: > 275 mg/kg/day; NEL [2, 10]: 190 mg/kg/day; NOAEL [2, 10]: ≥ 275 mg/kg/day

**Q.** With `CC(C)(NC(=O)NCc1ccccc1Cl)c1ccccc1` [Cumyluron] as the molecule, how does the LEL [3, 11] read?
**A.** 297 mg/kg/day

**Q.** What about the LOAEL [3, 11] of the same molecule?
**A.** 297 mg/kg/day

**Q.** What about the NEL [3, 11] of the same molecule?
**A.** 54 mg/kg/day

**Q.** And the NOAEL [3, 11]?
**A.** 54 mg/kg/day

**Q.** What about the LEL [3, 12] of the same molecule?
**A.** 297 mg/kg/day

**Q.** And the LOAEL [3, 12]?
**A.** 297 mg/kg/day

**Q.** What about the NEL [3, 12] of the same molecule?
**A.** 54 mg/kg/day

**Q.** What about the NOAEL [3, 12] of the same molecule?
**A.** 54 mg/kg/day

**Q.** What about the LEL [3, 13] of the same molecule?
**A.** 297 mg/kg/day

**Q.** And the LOAEL [3, 13]?
**A.** 297 mg/kg/day

**Q.** And the NEL [3, 13]?
**A.** 54 mg/kg/day

**Q.** What about the NOAEL [3, 13] of the same molecule?
**A.** 54 mg/kg/day

**Q.** What does the source list for `NC1CCCCC1` [Cyclohexylamine]?
**A.** LEL [4, 14]: 100 mg/kg/day; LOAEL [4, 14]: > 100 mg/kg/day; NEL [4, 14]: 30 mg/kg/day; NOAEL [4, 14]: ≥ 100 mg/kg/day; LEL [4, 15]: 100 mg/kg/day; LOAEL [4, 15]: > 100 mg/kg/day; NEL [4, 15]: 30 mg/kg/day; NOAEL [4, 15]: ≥ 100 mg/kg/day

**Q.** Which LEL [5, 16] does the source give for `CCCCCCC(C)OC(=O)COc1nc(F)c(Cl)c(N)c1Cl` (configuration not stated) [Fluroxypyr-meptyl] here?
**A.** > 600 mg/kg/day

**Q.** What about the LOAEL [5, 16] of the same molecule?
**A.** > 600 mg/kg/day

**Q.** What about the NEL [5, 16] of the same molecule?
**A.** ≥ 600 mg/kg/day

**Q.** What about the NOAEL [5, 16] of the same molecule?
**A.** ≥ 600 mg/kg/day

**Q.** What about the LEL [5, 17] of the same molecule?
**A.** 600 mg/kg/day

**Q.** What about the LOAEL [5, 17] of the same molecule?
**A.** 600 mg/kg/day

**Q.** And the NEL [5, 17]?
**A.** 300 mg/kg/day

**Q.** What about the NOAEL [5, 17] of the same molecule?
**A.** 300 mg/kg/day

**Q.** Which LEL [6, 18] does the source give for `CC1(C)OC(c2ccco2)CN1C(=O)C(Cl)Cl` (configuration not stated) [Furilazole] here?
**A.** 175 mg/kg/day

**Q.** What about the LOAEL [6, 18] of the same molecule?
**A.** > 175 mg/kg/day

**Q.** And the NEL [6, 18]?
**A.** 75 mg/kg/day

**Q.** And the NOAEL [6, 18]?
**A.** ≥ 175 mg/kg/day

**Q.** And the LOAEL ([6]; group: maternal, systemic / organ weight / liver / nos)?
**A.** 75 mg/kg/day

**Q.** And the LEL ([6]; group: maternal, systemic / organ weight / liver / nos + reproductive / reproductive performance / resorptions / resorptions)?
**A.** 75 mg/kg/day

**Q.** And the NEL [6, 19]?
**A.** 10 mg/kg/day

**Q.** What about the NOAEL [6, 19] of the same molecule?
**A.** 10 mg/kg/day
